Peptide text beside a SMILES is read from it.

Data on six molecules can be found in US20110033488A1, “AGENTS AND METHODS FOR TREATMENT OF ANXIETY DISORDERS” (Yeda Research and Development Co. Ltd., priority 2008, published 2011).

Series [1] has as its system ICAM-1 on choroid plexus cells (ECACC # 00031626). Description: ICAM-1 expression on choroid plexus cell line. The format is cell-based, rat. The settings on record: for ICAM-1 expression: 24 hrs. The protocol: (iv) Choroid Plexus endothelial cell culture. RCP cells (ECACC # 00031626, a kind gift from Dr. A. Chen, Weizmann Institute) (Battle et al., 2000) were cultured at 37° C. under 95% air/5% CO2 in DMEM medium containing 10% FCS, 100 U/ml penicillin, […], 1% insulin-transferrin-selenium mix (Sigma-Aldrich) and 0.1% Epidermal Growth Factor ([…]). The culture medium was changed every 2 days.
CPx cultures grown on cover slips were washed with PBS, and fixed as described above. The fixed cells were then treated with a blocking solution containing 10% FCS, 2% bovine serum albumin, 1% glycine, and 0.1% Triton X-100 (Sigma-Aldrich), and stained with hamster anti-mouse CD54 (ICAM-1) (Chemicon).

The next series concerns mice. The settings on record: one immunization with 100 μg peptide, without pertussis toxin.
Setting [2] is: all concentrations tested (1-100 ng/ml).

As to `C[C@]12C[C@H](O)[C@H]3[C@@H](CCC4=CC(=O)CC[C@@]43C)[C@@H]1CC[C@@H]2C(=O)CO` [corticosterone, reference compound], the “Concentration of peak ICAM-1 expression” value in series [1] (24 hrs incubation) came out at 1 ng/mL. Also, the ICAM-1 expression entry is “significantly inhibited” in series [1] (higher doses 20 ng/ml and 50 ng/ml); “significantly elevated” in series [1] (lower doses 1 ng/ml and 5 ng/ml).
Consider IFN-γ: cytokine, for which the ICAM-1 expression result in series [1] (higher concentrations) is “significant inhibition”; in series [1] (lower concentrations (1 ng and 10 ng)), “inactive”.
Take TNF-α: the ICAM-1 expression result in series [1] (setting [2]) is reported as “significant elevation”.
Consider IL-6: cytokine, for which the ICAM-1 expression entry in series [1] (setting [2]) is on record as “no effect”.
As for `CSCC[C@H](N)C(=O)N[C@@H](CCC(=O)O)C(=O)N[C@H](C(=O)NCC(=O)N[C@@H](Cc1c[nH]c2ccccc12)C(=O)N[C@@H](Cc1ccc(O)cc1)C(=O)N[C@@H](CCCNC(=N)N)C(=O)N[C@@H](CO)C(=O)N1CCC[C@H]1C(=O)N[C@@H](Cc1ccccc1)C(=O)N[C@@H](CO)C(=O)N[C@@H](CCCNC(=N)N)C(=O)N[C@H](C(=O)N[C@H](C(=O)N[C@@H](Cc1c[nH]cn1)C(=O)N[C@@H](CC(C)C)C(=O)N[C@@H](Cc1ccc(O)cc1)C(=O)N[C@@H](CCCNC(=N)N)C(=O)N[C@@H](CC(N)=O)C(=O)NCC(=O)N[C@@H](CCCCN)C(=O)O)C(C)C)C(C)C)C(C)C` [pMOG35-55] (H-MEVGWYRSPFSRVVHLYRNGK-OH; N-terminus and C-terminus assumed), the “Induction of EAE” value in the series on mice is given as “no EAE was induced”.

B1: IL-10: cytokine (protein, UniProt P22301 19-178, looked up)
Interleukin-10: SPGQGTQSENSCTHFPGNLPNMLRDLRDAFSRVKTFFQMKDQLDNLLLKESLLEDFKGYLGCQALSEMIQFYLEEVMPQAENQDPDIKAHVNSLGENLKTLRLRLRRCHRFLPCENKSKAVEQVKNAFNKLQEKGIYKAMSEFDIFINYIEAYMTMKIRN
B1: in series [1] (setting [2]), the ICAM-1 expression result is “significantly reduced”.
